Laboratory results from ChEMBL document CHEMBL1201862, “PubChem BioAssay data set” (2004).
“And” between values parts separate entries of the source, which are not always exact repeats. Equal values may be shown once. The source made the active and inactive calls.

Legend:
[1] = target: T1, Caspase-6 (Homo sapiens, UniProt P55212); test: inhibition of CASP6 peptide cleavage – biochemical, VEID-R110 fluorescence, cherry-pick, dose response (AID 720632)
T1 sequence (P55212 whole entry): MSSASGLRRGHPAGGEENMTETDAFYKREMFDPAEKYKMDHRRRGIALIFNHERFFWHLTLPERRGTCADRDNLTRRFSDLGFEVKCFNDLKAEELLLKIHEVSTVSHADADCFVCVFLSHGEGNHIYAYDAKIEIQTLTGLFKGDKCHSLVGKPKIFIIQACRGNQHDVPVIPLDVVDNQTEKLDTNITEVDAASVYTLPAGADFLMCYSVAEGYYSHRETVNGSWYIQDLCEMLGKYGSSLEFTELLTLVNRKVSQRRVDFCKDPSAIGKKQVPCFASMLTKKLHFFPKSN

[2] = target: DNA damage-inducible transcript 3 protein (Mus musculus, UniProt P35639); type: functional, Cricetulus griseus
[3] = target: DNA dC->dU-editing enzyme APOBEC-3A (Homo sapiens, UniProt P31941); test: A3A deaminase inhibition for selectivity – biochemical, dose response (AID 504722); type: functional
[4] = target: DNA dC->dU-editing enzyme APOBEC-3G (Homo sapiens, UniProt Q9HC16); test: Dose Response confirmation of small molecule APOBEC3G DNA Deaminase Inhibitors via a fluorescence-based single-stranded DNA deaminase assay. [Related pubchem assays (depositor defined):AID493012, AID493028]; type: functional
[5] = reduced cellular PGC1a acetyl-lysine signal – cell-based, cherry-picked samples, dose response (AID 720514); type: functional;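 further: potency may reflect raised or lowered acetylation signal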
[6] = loss of viability in HepG2 cells – cell-based, CellTiter-Glo, cherry-picked, cytotoxicity control for Shn3 inhibitor project, dose response (AID 624134); type: functional
[7] = target: Induced myeloid leukemia cell differentiation protein Mcl-1 (Homo sapiens, UniProt Q07820); type: functional
[8] = reduction of Shn3 3'UTR-driven luciferase in osteoblasts – cell-based, Clone20 osteoblasts, firefly luciferase, cherry-picked, dose response (AID 624132); type: functional;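 further: firefly luciferase luminescence from reporter carrying the Shn3 3'UTR in osteoblasts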
[9] = target: T2, Hexokinase HKDC1 (Homo sapiens, UniProt Q2TB90); test: inhibition of HKDC1 glucose phosphorylation – biochemical, W721R variant, dose response (AID 504729); type: functional
T2 sequence (Q2TB90 whole entry): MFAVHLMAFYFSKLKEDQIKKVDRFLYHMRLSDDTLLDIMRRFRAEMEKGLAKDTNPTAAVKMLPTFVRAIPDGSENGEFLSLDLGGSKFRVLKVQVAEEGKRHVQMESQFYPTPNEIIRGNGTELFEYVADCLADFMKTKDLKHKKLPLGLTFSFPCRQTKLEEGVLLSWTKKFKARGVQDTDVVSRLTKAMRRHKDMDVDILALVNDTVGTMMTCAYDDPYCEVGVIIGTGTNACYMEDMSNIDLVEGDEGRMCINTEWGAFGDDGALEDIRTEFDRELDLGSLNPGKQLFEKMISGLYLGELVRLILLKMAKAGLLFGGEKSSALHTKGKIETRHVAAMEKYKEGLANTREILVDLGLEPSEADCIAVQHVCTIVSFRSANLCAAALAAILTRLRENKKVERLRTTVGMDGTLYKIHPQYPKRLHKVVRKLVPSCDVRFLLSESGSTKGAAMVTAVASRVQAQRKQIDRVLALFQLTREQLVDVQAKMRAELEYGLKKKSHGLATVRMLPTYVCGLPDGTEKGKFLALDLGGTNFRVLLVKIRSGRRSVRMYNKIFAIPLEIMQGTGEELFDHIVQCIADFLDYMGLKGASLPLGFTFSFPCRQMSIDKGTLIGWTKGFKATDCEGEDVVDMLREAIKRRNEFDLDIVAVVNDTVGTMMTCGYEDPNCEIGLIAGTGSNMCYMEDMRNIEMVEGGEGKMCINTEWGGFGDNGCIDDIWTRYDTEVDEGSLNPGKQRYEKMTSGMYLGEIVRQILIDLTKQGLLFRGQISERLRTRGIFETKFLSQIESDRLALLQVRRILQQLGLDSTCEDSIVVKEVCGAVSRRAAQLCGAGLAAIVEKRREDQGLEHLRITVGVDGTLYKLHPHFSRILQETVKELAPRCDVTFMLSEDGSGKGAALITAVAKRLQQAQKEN

[10] = non-specific 3'UTR reporter inhibition in Clone20-Shn3RL – cell-based, Renilla luciferase, cherry-picked, counter-screen for Shn3 inhibitor project, dose response (AID 624133); type: functional
[11] = target: Paired box protein Pax-8 (Homo sapiens, UniProt Q06710); test: PAX8 transcriptional activity inhibition in RMG-I – RMG-I cells, luciferase, cherry-pick, dose response (AID 687027); type: functional, cell-based;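 further: luciferase reporter driven by Pax8 target thyroperoxidase promoter measured by SteadyGlo luminescence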
[12] = target: T3, Mannose-6-phosphate isomerase (Homo sapiens, UniProt P34949); test: MPI inhibition at elevated mannose 6-phosphate – biochemical, fluorescence intensity, high mannose 6-phosphate, primary screen (AID 1220)
T3 sequence (P34949 whole entry): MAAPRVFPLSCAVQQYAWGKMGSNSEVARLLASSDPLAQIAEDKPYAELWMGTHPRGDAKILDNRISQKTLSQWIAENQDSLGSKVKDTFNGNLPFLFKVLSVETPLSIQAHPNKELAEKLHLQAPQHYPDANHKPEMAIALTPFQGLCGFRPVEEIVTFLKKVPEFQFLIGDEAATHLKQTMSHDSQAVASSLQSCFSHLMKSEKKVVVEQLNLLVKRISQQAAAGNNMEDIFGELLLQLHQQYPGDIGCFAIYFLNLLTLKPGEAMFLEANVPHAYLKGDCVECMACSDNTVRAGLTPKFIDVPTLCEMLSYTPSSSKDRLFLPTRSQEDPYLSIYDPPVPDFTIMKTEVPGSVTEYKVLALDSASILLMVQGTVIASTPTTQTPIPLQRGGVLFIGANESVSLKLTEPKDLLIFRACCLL

[13] = target: Glucose-6-phosphate 1-dehydrogenase (Homo sapiens, UniProt P11413); test: inhibition of Homo sapiens G6PD, dose series – biochemical, fluorescence, selectivity assay for P. falciparum G6PD inhibitor project, dose response (AID 504792); type: functional
[14] = test system: Streptococcus; test: GAS UMAA2166 growth inhibition – luminescence, BacTiterGlo, counter-screen for streptokinase expression inhibitor project, dose response (AID 1915); type: functional, organism-based;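 further: potency for reduction of bacterial viability or growth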
[15] = target: Beta-galactosidase (Escherichia coli, UniProt Q8VNN2); test: PubChem AID 485352; type: functional
[16] = Trypanosoma cruzi growth suppression in host cells – NIH3T3 host cells, beta-gal luminescence, confirmation (AID 2044); type: functional, cell-based;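 further: intracellular parasites grown in NIH/3T3 mouse fibroblasts as host cells; luminescent beta-galactosidase reporter signal from transgenic T. cruzi replicating inside host cells; inhibitors lower the luminescence signal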
[17] = cells; type: functional
[18] = test system: Streptococcus sp. 'group A'; test: Streptococcus pyogenes SK(-)GAS viability under kanamycin – luminescence, BacTiterGlo, confirmation, counter-screen for streptokinase expression inhibitor project, dose response (AID 1900); type: functional, organism-based
[19] = target: T4, Type-1 angiotensin II receptor (Homo sapiens, UniProt P30556); test: antagonism of angiotensin II type 1 receptor – cell-based, uHTS hits, selectivity assay for APJ receptor antagonist project, dose response (AID 463214); type: functional;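 further: antagonist potency against angiotensin II stimulated AT1 response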
T4 sequence (P30556 whole entry): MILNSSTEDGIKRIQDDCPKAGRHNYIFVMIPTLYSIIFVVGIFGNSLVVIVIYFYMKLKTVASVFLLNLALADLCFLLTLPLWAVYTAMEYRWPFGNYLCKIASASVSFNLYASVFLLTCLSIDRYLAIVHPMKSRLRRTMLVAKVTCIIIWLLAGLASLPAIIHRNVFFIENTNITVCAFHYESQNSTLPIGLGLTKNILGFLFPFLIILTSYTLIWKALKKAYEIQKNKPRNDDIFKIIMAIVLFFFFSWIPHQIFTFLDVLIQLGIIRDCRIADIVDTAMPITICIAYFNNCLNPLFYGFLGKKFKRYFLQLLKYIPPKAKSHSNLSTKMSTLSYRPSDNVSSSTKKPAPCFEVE

[20] = THP-1 cell cytotoxicity, dose response, cytotoxicity control for non-replicating M. tuberculosis project (AID 489025); type: functional
[21] = Vero E6 cell cytotoxicity, dose response, cytotoxicity control for non-replicating M. tuberculosis project, secondary assay (AID 492998); type: functional, VeroE6; settings: Vero C1008
[22] = HepG2 cell cytotoxicity, dose response, cytotoxicity control for non-replicating M. tuberculosis project (AID 489018); type: functional; settings: Mycobacterium tuberculosis
[23] = NIH3T3 cell viability loss – ATP luminescence, mouse fibroblasts, counter-screen, dose response (AID 2010); type: functional, cell-based;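 further: cells exposed to compound for about 90 hours before reading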
[24] = target: T5, Aryl hydrocarbon receptor (Homo sapiens, UniProt P35869); test: Luminescence-based cell-based high throughput dose response assay for activators of the Aryl Hydrocarbon Receptor (AHR). [Related pubchem assays: 2796 (Primary screen (AHR activators in singlicate)), 2845 (Confirmation screen (AHR activators in triplicate)), 434939 (Counterscreen (PXR activators in triplicate)), 2804 (Summary (AHR activators))]; type: ADME
T5 sequence (P35869 whole entry): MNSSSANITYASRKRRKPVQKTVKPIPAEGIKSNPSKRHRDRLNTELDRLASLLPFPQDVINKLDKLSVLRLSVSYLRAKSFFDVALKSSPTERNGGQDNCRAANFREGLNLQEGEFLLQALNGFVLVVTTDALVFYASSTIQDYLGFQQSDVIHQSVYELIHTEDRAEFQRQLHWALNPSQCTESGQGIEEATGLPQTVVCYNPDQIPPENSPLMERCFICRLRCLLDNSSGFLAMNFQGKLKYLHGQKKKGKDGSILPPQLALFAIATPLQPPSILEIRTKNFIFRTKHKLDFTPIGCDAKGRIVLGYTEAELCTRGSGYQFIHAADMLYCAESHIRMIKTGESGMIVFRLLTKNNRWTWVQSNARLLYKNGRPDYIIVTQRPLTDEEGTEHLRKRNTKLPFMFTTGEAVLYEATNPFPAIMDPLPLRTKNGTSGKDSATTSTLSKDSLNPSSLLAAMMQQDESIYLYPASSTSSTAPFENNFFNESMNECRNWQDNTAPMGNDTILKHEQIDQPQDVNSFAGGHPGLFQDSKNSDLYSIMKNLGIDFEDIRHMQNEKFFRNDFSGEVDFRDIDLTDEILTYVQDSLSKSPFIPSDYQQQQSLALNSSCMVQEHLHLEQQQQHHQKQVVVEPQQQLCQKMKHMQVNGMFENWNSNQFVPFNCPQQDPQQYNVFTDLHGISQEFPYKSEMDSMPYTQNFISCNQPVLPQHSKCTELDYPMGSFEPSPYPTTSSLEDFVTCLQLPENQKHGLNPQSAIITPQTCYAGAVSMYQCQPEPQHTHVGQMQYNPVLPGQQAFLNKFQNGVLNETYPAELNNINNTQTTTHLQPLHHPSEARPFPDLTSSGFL

[25] = target: Trypsin (Sus scrofa, UniProt P00761); test: trypsin protease activity blockade – biochemical, quenched peptide fluorescence, cherry-pick, selectivity assay for Rce1 protease inhibitor project, dose response (AID 488789)
[26] = target: T6, CAAX prenyl protease 2 (Saccharomyces cerevisiae S288c, UniProt Q03530); type: biochemical
T6 sequence (Q03530 whole entry): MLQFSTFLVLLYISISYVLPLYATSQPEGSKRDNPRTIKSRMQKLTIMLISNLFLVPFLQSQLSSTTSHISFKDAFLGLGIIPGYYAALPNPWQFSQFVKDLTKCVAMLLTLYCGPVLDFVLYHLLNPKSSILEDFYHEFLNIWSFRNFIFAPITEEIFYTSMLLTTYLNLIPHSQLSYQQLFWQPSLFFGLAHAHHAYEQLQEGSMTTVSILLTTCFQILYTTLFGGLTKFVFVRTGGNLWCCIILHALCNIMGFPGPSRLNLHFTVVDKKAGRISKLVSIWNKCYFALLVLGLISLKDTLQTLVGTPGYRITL

[27] = target: T7, Ubiquitin-conjugating enzyme E2 N (Homo sapiens, UniProt P61088); type: functional
T7 sequence (P61088 whole entry): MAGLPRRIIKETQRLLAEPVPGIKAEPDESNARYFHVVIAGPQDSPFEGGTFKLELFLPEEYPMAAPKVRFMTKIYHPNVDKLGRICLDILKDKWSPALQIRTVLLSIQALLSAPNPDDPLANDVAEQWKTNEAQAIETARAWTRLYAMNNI

[28] = target: T7, Ubiquitin-conjugating enzyme E2 N; type: functional; remark: listed apart in the source
[29] = target: T8, Bcl-2-related protein A1 (Mus musculus, UniProt Q07440); type: functional;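 further: confirmatory dose–response counterscreen on Bfl-1, used to check hits from a UBC13 polyubiquitin inhibitor campaign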
T8 sequence (Q07440 whole entry): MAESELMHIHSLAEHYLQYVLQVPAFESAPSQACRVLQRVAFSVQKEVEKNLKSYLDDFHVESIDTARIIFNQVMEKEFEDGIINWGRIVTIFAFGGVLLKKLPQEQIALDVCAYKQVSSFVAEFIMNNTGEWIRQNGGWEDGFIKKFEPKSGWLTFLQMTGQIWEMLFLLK

DNA damage-inducible transcript 3 protein, sequence (P35639 whole entry): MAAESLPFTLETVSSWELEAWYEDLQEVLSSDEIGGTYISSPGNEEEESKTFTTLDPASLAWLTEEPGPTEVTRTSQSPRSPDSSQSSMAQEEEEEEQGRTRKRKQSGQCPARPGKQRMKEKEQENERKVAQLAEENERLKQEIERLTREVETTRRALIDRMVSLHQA
Glucose-6-phosphate 1-dehydrogenase, sequence (P11413 whole entry): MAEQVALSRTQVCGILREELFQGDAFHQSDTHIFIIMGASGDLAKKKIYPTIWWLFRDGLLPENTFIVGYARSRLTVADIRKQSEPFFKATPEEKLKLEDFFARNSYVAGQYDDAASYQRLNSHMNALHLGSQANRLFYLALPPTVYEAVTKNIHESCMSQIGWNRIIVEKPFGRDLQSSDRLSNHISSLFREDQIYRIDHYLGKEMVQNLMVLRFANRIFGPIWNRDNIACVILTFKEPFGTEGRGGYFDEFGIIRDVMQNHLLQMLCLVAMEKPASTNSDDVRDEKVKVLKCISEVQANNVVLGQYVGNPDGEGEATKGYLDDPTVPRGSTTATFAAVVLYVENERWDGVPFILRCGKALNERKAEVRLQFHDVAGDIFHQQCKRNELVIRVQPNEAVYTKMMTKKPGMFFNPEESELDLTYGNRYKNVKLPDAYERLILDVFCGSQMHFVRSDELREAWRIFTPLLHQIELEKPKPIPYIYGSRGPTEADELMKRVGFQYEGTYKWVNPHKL
Beta-galactosidase, sequence (Q8VNN2 whole entry): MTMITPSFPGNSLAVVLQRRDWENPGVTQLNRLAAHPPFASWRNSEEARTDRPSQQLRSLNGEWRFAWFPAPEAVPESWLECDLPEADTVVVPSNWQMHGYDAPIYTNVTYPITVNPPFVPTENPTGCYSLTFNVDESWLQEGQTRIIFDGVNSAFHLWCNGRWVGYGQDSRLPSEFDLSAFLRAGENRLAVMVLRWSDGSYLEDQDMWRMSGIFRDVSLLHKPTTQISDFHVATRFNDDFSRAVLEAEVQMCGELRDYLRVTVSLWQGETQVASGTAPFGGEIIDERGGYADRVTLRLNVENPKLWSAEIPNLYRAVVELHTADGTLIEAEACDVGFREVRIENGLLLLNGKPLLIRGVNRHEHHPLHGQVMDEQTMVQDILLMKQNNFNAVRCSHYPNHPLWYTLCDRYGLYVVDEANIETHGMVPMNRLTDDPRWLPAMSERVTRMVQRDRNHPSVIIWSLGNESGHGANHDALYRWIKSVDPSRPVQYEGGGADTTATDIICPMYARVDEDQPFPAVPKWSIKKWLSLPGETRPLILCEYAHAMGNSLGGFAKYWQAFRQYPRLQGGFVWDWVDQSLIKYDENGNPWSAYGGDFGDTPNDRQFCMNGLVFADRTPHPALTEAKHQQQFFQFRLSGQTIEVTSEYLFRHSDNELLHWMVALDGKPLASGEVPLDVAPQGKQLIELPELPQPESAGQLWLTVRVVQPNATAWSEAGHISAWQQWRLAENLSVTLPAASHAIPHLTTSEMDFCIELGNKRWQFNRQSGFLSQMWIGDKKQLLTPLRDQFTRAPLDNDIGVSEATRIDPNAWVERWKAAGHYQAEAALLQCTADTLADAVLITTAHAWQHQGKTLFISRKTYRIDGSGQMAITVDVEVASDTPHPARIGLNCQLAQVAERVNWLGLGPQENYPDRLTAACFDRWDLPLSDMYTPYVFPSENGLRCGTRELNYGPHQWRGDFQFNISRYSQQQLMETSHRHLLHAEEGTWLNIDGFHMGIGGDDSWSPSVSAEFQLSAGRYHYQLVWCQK
Trypsin, sequence (P00761 whole entry): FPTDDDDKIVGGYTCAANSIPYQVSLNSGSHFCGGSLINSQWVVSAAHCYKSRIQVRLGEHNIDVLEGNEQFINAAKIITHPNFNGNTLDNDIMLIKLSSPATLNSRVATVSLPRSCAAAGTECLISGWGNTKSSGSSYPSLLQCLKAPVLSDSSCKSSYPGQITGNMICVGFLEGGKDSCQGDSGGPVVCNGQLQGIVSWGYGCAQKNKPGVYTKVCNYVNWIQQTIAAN
DNA dC->dU-editing enzyme APOBEC-3A, sequence (P31941 whole entry): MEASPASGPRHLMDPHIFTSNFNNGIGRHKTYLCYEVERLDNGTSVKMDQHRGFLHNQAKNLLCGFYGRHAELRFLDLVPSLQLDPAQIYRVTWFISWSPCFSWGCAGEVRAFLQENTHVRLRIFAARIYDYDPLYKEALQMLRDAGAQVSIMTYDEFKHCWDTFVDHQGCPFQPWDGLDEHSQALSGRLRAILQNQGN
DNA dC->dU-editing enzyme APOBEC-3G, sequence (Q9HC16 whole entry): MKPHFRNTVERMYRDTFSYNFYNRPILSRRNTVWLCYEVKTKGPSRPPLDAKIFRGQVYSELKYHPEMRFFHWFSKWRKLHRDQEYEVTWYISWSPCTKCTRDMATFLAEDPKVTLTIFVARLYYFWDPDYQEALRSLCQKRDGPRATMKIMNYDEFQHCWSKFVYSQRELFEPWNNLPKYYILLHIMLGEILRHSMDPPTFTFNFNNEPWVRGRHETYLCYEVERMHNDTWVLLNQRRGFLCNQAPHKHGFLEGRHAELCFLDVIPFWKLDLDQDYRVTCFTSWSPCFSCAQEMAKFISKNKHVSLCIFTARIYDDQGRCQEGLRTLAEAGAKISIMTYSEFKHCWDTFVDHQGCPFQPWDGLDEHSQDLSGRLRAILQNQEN
Paired box protein Pax-8, sequence (Q06710 whole entry): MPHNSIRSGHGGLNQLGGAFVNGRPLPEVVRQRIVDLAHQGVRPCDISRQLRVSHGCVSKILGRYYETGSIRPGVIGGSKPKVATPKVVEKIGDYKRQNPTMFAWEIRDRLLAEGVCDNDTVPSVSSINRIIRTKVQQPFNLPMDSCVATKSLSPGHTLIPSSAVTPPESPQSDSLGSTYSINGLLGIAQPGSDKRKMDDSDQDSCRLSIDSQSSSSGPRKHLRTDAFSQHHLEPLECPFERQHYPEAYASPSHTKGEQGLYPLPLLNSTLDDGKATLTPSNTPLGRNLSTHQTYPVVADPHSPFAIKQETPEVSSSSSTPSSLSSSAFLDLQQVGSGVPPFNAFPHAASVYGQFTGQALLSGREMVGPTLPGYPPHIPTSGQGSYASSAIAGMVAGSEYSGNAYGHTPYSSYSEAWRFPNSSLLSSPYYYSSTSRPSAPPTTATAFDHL
Induced myeloid leukemia cell differentiation protein Mcl-1, sequence (Q07820 whole entry): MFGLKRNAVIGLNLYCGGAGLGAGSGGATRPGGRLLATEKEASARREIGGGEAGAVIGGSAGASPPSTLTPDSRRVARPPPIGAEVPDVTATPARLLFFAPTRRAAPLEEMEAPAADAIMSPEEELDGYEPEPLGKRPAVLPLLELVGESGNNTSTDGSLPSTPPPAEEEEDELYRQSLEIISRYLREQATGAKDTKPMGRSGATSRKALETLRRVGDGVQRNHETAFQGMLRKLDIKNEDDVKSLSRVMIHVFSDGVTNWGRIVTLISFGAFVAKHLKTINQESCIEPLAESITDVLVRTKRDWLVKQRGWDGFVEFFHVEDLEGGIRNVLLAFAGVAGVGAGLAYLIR

## O=S(=O)(Nc1cc(Sc2nc[nH]n2)c(O)c2ccccc12)c1ccccc1
[1]
  AC50: 0.911 µM (active)
[2]
  Absolute IC50 (CHOP): 10 µM
[3]
  IC50: > 100 µM (inactive)
[4]
  IC50: 3.16 µM (active)
[5]
  AC50: 9.88 µM (active)
[6]
  AC50: 26.1 µM (active)
[7]
  IC50: 11.7 µM (active)
[8]
  AC50: 7.55 µM (active)
[9]
  IC50: 9.93 µM (active)
[10]
  AC50: 12.4 µM (active)
[11]
  AC50: 9.52 µM (active)
[12]
  IC50: 3.32 µM (active)
[13]
  IC50: 21.1 µM (inactive)

## N=C1S/C(=C\c2ccco2)C(=O)N1c1nccs1
[14]
  EC50: 9.61 µM (active)
[15]
  EC50: > 40 µM (inactive)
[16]
  EC50: 2.11 µM (active)
[17]
  IC50: 0.2 µM (active)
[18]
  EC50: 3.66 µM (active)
[19]
  IC50: 7.86 µM (active)
[20]
  CC50: 15.7 µM (active)
[21]
  CC50: 9.33 µM (active)
[22]
  CC50: > 20 µM (active)
[23]
  EC50: > 30 µM (not active)

## CCOC(=O)Cc1cc(-c2ccc(O)cc2)nc2ccc3ccccc3c12
[2]
  Absolute IC50 (CHOP): 10 µM
[24]
  EC50: 1.47 µM (active)

## c1ccc(-n2nnnc2SCc2cn3cccnc3n2)cc1
[25]
  AC50: 18.6 µM (active)
[26]
  AC50: 10.5 µM (active)

## C[C@@H]1O[C@@H](O[C@H]2[C@H](Oc3cc(O)c4c(c3)O[C@H](c3ccc(O)cc3)CC4=O)O[C@H](CO)[C@@H](O)[C@@H]2O)[C@H](O)[C@H](O)[C@H]1O [NARINGIN]
[27]
  IC50: 5.77 µM (active) and 6.66 µM (active)
[28]
  IC50: 12.2 µM (active) and 8.7 µM (active)
[29]
  IC50: > 20 µM (inactive)
